Measurements from ChEMBL document CHEMBL1201862, “PubChem BioAssay data set” (2004).
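Five compound concentrations were applied to cells in 96-well plates for 48 hours; endpoints were derived by simple linear interpolation of the resulting dose-response curve. GI50 is the concentration that inhibits growth by half.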 Active and inactive are the calls of the source. Rule as the data show it: active = GI50 up to about 1.1 µM and inactive = higher.

Experiments:
Assay in all cases: NCI anticancer screen, dose series, 48 h
EKVX = system: EKVX
SF-295 = system: SF-295
OVCAR-8 = system: OVCAR-8
A549 = system: A549
UACC-257 = system: UACC-257
UO-31 = system: UO-31
KM12 = system: KM12
OVCAR-5 = system: OVCAR-5
K562 = system: K562
RXF 393 = system: RXF 393
HCT-116 = system: HCT-116
SK-OV-3 = system: SK-OV-3
SK-MEL-28 = system: SK-MEL-28
HT-29 = system: HT-29
SN12C = system: SN12C
MOLT-4 = system: MOLT-4
SNB-19 = system: SNB-19
SF-539 = system: SF-539
NCI-H226 = system: NCI-H226
SK-MEL-2 = system: SK-MEL-2

Measured: GI50

CCCCN1CN2C(=O)C(C(=O)OCC)C(=O)c3sc4nc(SC)nc1c4c32 (stereo not given)
inactive: EKVX 17.9 µM | SF-295 16.6 µM | OVCAR-8 21.6 µM | A549 19.9 µM | UACC-257 19 µM | UO-31 21.1 µM | KM12 16.8 µM | OVCAR-5 18.6 µM | K562 35.5 µM | RXF 393 20.5 µM | HCT-116 15.9 µM | SK-OV-3 17.6 µM | SK-MEL-28 19.8 µM | HT-29 19.8 µM | SN12C 19.7 µM | MOLT-4 29 µM | SNB-19 19 µM | SF-539 18.5 µM | NCI-H226 19 µM | SK-MEL-2 19.8 µM

O=NN(CCCl)C(=O)N[C@H]1CC[C@@H](O)CC1
inactive: EKVX 33.6 µM | SF-295 24 µM | OVCAR-8 33 µM | A549 81.3 µM | UACC-257 32.3 µM | UO-31 72.4 µM | KM12 67.5 µM | OVCAR-5 > 100 µM | K562 23.6 µM | RXF 393 23.9 µM | HCT-116 34 µM | SK-OV-3 > 100 µM | SK-MEL-28 25.3 µM | HT-29 60.3 µM | SN12C 36.6 µM | MOLT-4 20.6 µM | SNB-19 51.2 µM | SF-539 23.3 µM | NCI-H226 34.2 µM | SK-MEL-2 > 100 µM

CCN1CCCC(NCc2c3ccccc3c(CNC3CCCN(CC)C3)c3ccccc23)C1 (stereo not given)
inactive: EKVX 17.3 µM | SF-295 4.67 µM | OVCAR-8 > 33.7 µM | A549 > 48 µM | UACC-257 10.9 µM | UO-31 24.8 µM | KM12 5.45 µM | OVCAR-5 5.96 µM | K562 7.85 µM | RXF 393 3.48 µM | HCT-116 4.5 µM | SK-OV-3 10.1 µM | SK-MEL-28 11.8 µM | HT-29 2.6 µM | SN12C 8.91 µM | MOLT-4 3.18 µM | SNB-19 11.1 µM | SF-539 14.9 µM | NCI-H226 13.4 µM | SK-MEL-2 5.16 µM

CCCCS(=N)(=O)CC[C@H](N)C(=O)O (stereo not given in full) [BUTHIONINE SULFOXIME]
inactive: EKVX 1450 µM | SF-295 > 5000 µM | OVCAR-8 2320 µM | A549 > 5000 µM | UACC-257 > 5000 µM | UO-31 2480 µM | KM12 > 5000 µM | OVCAR-5 > 5000 µM | K562 > 5000 µM | RXF 393 > 5000 µM | HCT-116 > 5000 µM | SK-OV-3 > 5000 µM | SK-MEL-28 > 5000 µM | HT-29 > 5000 µM | SN12C > 5000 µM | MOLT-4 2550 µM | SNB-19 > 5000 µM | SF-539 4910 µM | NCI-H226 > 5000 µM | SK-MEL-2 > 5000 µM
